Data published in patent US11510888B2, “Alleviating oxidative stress disorders with PUFA derivatives” (Retrotope, Inc., priority 2009, dated 2022).

Experiments:
[1] = system: coq null mutants (Q-less yeast); conditions: for protection in the yeast model: compared with D4-linolenic acid
Protocol: FIG. 3. […] Yeast coq3, coq7 and coq9 null mutants were prepared in the W303 yeast genetic background (WT). Yeast strains were grown in YPD medium (1% Bacto-yeast extract, 2% Bacto-peptone, 2% dextrose) and harvested while in log phase growth (OD600nm=0.1-1.0). Cells were washed twice with sterile water and resuspended in phosphate buffer (0.10 M sodium phosphate, pH 6.2, 0.2% dextrose) to an OD600nm=0.2. Samples were removed and 1:5 serial dilutions starting at 0.20 OD/ml were plated on YPD plate medium, to provide a zero time untreated control (shown in top left panel). The designated fatty acids were added to 200 uM final concentration to 20 ml of yeast in phosphate buffer. At 2 h, 4 h, and 16 h samples were removed, 1:5 serial dilutions prepared, and spotted onto YPD plate medium. Pictures were taken after 2 days of growth at 30° C.
FIG. 4. […] The fatty acid sensitive assay was performed as described in FIG. 6-1, except that 100 ul aliquots were removed at 1, 2, and 4 h and, following dilution, spread onto YPD plates. Pictures were taken after 2 to 2.5 days, and the number of colonies counted. Yeast strains include Wild type (circles), atp2 (triangles), or coq3 (squares); Fatty acid treatments include oleic C18:1 (solid line), linolenic, C18:3, n-3 (dashed line) or 11,11,14,14-D4-linolenic, C18:3, n-3, (dotted line).
Q-less yeast (coq mutants) provide an ideal system to assess in vivo autoxidation of fatty acids. Coenzyme Q (ubiquinone or Q) serves as a small lipophilic antioxidant as well as an electron shuttle in the respiratory chain of the mitochondrial inner membrane. Ten S. cerevisiae genes (COQ1-COQ10) are required for coenzyme Q biosynthesis and function, and the deletion of any results in respiratory deficiency (Tran U C, Clarke C F. Mitochondrion 2007; 75,S62).
A plate dilution assay can be used to assess PUFA sensitivity. This assay can be performed by spotting serial five-fold dilutions of aliquots onto YPD plate media (FIG. 3). The sensitivity of the different strains can be observed by visual inspection of the density of cells in each spot.

WT (W303) yeast = conditions: 200 μM, 4 h incubation
Protocol: Uptake of exogenously supplied fatty acids by yeast. WT (W303) yeast were harvested at log phase and incubated in the presence of 200 μM of the designated fatty acid for either 0 or 4 h.
Chromatograms of the yeast extracts subjected to GC-MS analyses. The different traces represent the 0 and 4 h incubations, respectively. The peak area of Each FAME (C18:1, C18:3 and D4-linolenic) was divided by the peak area of the C17:0 standard, quantified with a calibration curve.
Wild-type yeast were harvested during log phase growth and incubated in the presence of exogenously added fatty acid (for 0 or 4 h) in the presence of phosphate buffer plus 0.20% dextrose, as described for the fatty acid sensitivity assay. Cells were harvested, washed twice with 10 ml sterile water, and the yeast cell pellets were then processed by alkaline methanolysis as described above. The fatty acids are detected as methylesters (FAMEs) following GC-MS with C17:0 added as an internal standard (FIG. 6). The amounts of 18:3 and D4 detected after 4 h incubation were extrapolated from the calibration curve.

[2] = mouse, in vivo; cited from earlier work
[3] = system: coq null mutants (Q-less yeast); conditions: cited from earlier work; for sensitivity of Q-less yeast to fatty acid treatment: compared with wild-type parental strain
[4] = system: wild-type (strain W303-1B) cells; conditions: four hour treatment; cited from earlier work

In the case of `[2H]C([2H])(/C=C\C/C=C\CC)C/C=C\CCCCCCC(=O)O` [11, 11-D2-linolenic acid, 11,11-Dideutero-cis,cis,cis-octadeca-8,12,15-trienoic acid], the “protection in the yeast model” value [1] is reported as “comparable protection”.

With `[2H]C([2H])(/C=C\CC)/C=C\CC/C=C\CCCCCCC(=O)O` [14, 14-D2-linolenic acid, 14,14-Dideutero-cis,cis,cis-octadeca-8,12,15-trienoic acid] the “protection in the yeast model” value [1] was “comparable protection”.

In the case of `[2H]C([2H])(/C=C\CC)/C=C\C([2H])([2H])/C=C\CCCCCCCC(=O)O` [D4-linolenic acid, 11,11,14,14-Tetradeutero-cis,cis,cis-9,12,15-Octadecatrienoic acid], the “incorporation of exogenously added fatty acid by yeast” value (WT (W303) yeast) is reported as “avidly incorporate” and the “viability of cells compared with oleic acid treatment” value ([1]; quantitative colony counting) is reported as “similar”.

For `CCCCC/C=C\C/C=C\CCCCCCCC(=O)O` [LA, (9Z,12Z)-9,12-Octadecadienoic acid], the “time at which higher-order PUFA concentration peaks in brain” value [2] is given as no more than 8 h.

In the case of `CCCCC/C=C\C/C=C\C/C=C\C/C=C\CCCC(=O)O` [arachidonic acid], the “sensitivity of Q-less yeast to fatty acid treatment” value [3] is listed as “hypersensitive”.

For `CC/C=C\C/C=C\C/C=C\CCCCCCCC(=O)O` [linolenic acid, (9Z,12Z,15Z)-9,12,15-Octadecatrienoic acid], the “time at which higher-order PUFA concentration peaks in brain” value [2] is given as no more than 8 h, the “incorporation of exogenously added fatty acid by yeast” value (WT (W303) yeast) is given as “avidly incorporate” and the “wild-type cells remaining viable” value [4] is given as 70%. The “viability / cell killing of coq mutants” value ([1]; 200 uM fatty acid, plate dilution assay) was “dramatic loss of viability”, the “reduction of viability of the coq mutants” value ([1]; quantitative colony counting, treatment for 4 h) was “more than 100 fold” and the “viable Q-less (coq2, coq3, and coq5) yeast mutants” value ([3]; following a four hour treatment) was “Less than 1%”.

For `CCCCCCCC/C=C\CCCCCCCC(=O)O` [oleic acid], the “sensitivity of Q-less yeast to fatty acid treatment” value [3] is listed as “behave the same as the wild-type parental strain”.
